“And” between values parts separate entries of the source, which are not always exact repeats. Identical values can stand only once. After the bases stand the sugars from the 5' end (letter, count) and the backbone: PS all phosphorothioate, else s phosphorothioate and o phosphodiester by linkage. Methylation of C is not given here. e = 2'-O-(2-methoxyethyl) (MOE); k = constrained ethyl (cEt); d = 2'-deoxy (DNA)

One data set concerns the target HSD17B13. The note with it: ASO, HepaRG, 0.02 µM.
For the sequence TTTGTTAGAGTGCTTA (sugars k3 d10 k3, PS), the target mRNA inhibition came to 12%.

The same data set, now with this note: ASO, HepaRG, 0.078 µM.
Take TTTGTTAGAGTGCTTA (sugars k3 d10 k3, PS): the target mRNA inhibition was found to be 30%.

The same data set, now with this note: ASO, HepaRG, 0.313 µM.
Take TTTGTTAGAGTGCTTA (sugars k3 d10 k3, PS): the target mRNA inhibition worked out at 56%.

The same data set, now with this note: ASO, HepaRG, 1 µM.
With TTTCGAATCATTAAGC (sugars k3 d10 k3, PS), the target mRNA inhibition was determined as 30%. Turning to TTTCGGCACTCAGCTG (sugars k3 d10 k3, PS), the target mRNA inhibition was 29%. As to TTTCTAAATTACTCCG (sugars k3 d10 k3, PS), the target mRNA inhibition was 54%.

On to TTTGAGAGAACTTATA (sugars k3 d10 k3, PS), for which the target mRNA inhibition turned out to be 0%.

Take TTTGCAGCATTGATTC (sugars k3 d10 k3, PS): the target mRNA inhibition came to 53%. TTTGGTGGACTTCAGA (sugars k3 d10 k3, PS): the target mRNA inhibition is 16%. With TTTGTTAGAGTGCTTA (sugars k3 d10 k3, PS), the target mRNA inhibition came out at 80%.

The data set is the same for the next values; noted with them: ASO, HepaRG, 1.25 µM.
As for TTTGTTAGAGTGCTTA (sugars k3 d10 k3, PS), the target mRNA inhibition came out at 86%.

Staying with this data set, now noted: ASO, HepaRG, 5 µM.
In the case of TTTGTTAGAGTGCTTA (sugars k3 d10 k3, PS), the target mRNA inhibition was found to be 89%.

A further data set addresses IRF4. The note with it: ASO, MM.1R, 0.0625 µM.
Turning to AACCTTAAGCTATTTG (sugars k3 d10 k3, PS), the target mRNA inhibition was -10%.

The data set is the same for the next values; noted with them: ASO, MM.1R, 0.25 µM.
AACCTTAAGCTATTTG (sugars k3 d10 k3, PS): the target mRNA inhibition is -5%.

Staying with this data set, now noted: ASO, MM.1R, 1 µM.
As for AAAAAGGTGCAAGCCT (sugars k3 d10 k3, PS), the target mRNA inhibition is 6%. Regarding AAACATCCAAAGGGTT (sugars k3 d10 k3, PS), the target mRNA inhibition is -1%. In the case of AAAGAAGCAAGTCGGT (sugars k3 d10 k3, PS), the target mRNA inhibition is -2%. Take AAAGAATGGCGCATAG (sugars k3 d10 k3, PS): the target mRNA inhibition worked out at 10%.

For the sequence AACGAGCCAGTGCACA (sugars k3 d10 k3, PS), the target mRNA inhibition was -1%.

In the case of “AAGCAGTGATGTCAGG (sugars kdddddddddkekeke, PS)”, the target mRNA inhibition is 34% and 35%.

For “AAGCATTTTATCATCC (sugars e1 k2 d9 k2 e2, PS)”, the target mRNA inhibition stood at 14%. On the same count and under the same terms, the result for “AAGCATTTTATCATCC (sugars kkdddddddddkdkdk, PS)” reads 3%; that for “AAGCATTTTATCATCC (sugars kkkdddddddddkeke, PS)”, 21%; that for AAGCGAGTCAGACAGT (sugars k3 d10 k3, PS), -22%.

AAGCTTGATAAAGGCT (sugars k3 d10 k3, PS): the target mRNA inhibition is 3%.

In the case of AAGTGGAACTCATAGG (sugars k3 d10 k3, PS), the target mRNA inhibition is 25%. For the sequence “AAGTGTCTAAAGTCCC (sugars kkdddddddddkekek, PS)”, the target mRNA inhibition is 12% and 22%. As to “AAGTTCATGTAAAGTC (sugars k2 d9 e3 k2, PS)”, the target mRNA inhibition was 21% and 3%. As for AAGTTCATGTAAAGTC (sugars k3 d10 k3, PS), the target mRNA inhibition was 43% and 41%. Turning to “AAGTTCATGTAAAGTC (sugars kdddddddddkekeke, PS)”, the target mRNA inhibition is 14% and 21%. “AAGTTCATGTAAAGTC (sugars kkdddddddddkekek, PS)”: the target mRNA inhibition was 34% and 27%. On the same count and under the same terms, next, AATAAAATGTCACGCC (sugars k3 d10 k3, PS): 20%; AATATAACGGTGTTTC (sugars k3 d10 k3, PS): 8%; AATCACGAGGTTGCCG (sugars k3 d10 k3, PS): -6%. As for AATCTTCTGGATTGCT (sugars k3 d10 k3, PS), the target mRNA inhibition was found to be 14%.

AATGGAGATACTTGTA (sugars k3 d10 k3, PS): the target mRNA inhibition amounted to 26%. As to AATGGCAGCACCGTGT (sugars k3 d10 k3, PS), the target mRNA inhibition was found to be 0%. Regarding “AATGTGTATTACTCTT (sugars k2 d9 e3 k2, PS)”, the target mRNA inhibition was 15% and 17%. Same read-out and setting: next, “AATGTGTATTACTCTT (sugars kdddddddddkekeke, PS)”: 12% and 15%. On to “AATGTGTATTACTCTT (sugars kkdddddddddekeke, PS)”, for which the target mRNA inhibition was 24% and 30%. As for “ACACTTTTAGAGAGGA (sugars kkddddddddddkeke, PS)”, the target mRNA inhibition was found to be 14%.

For the sequence “ACACTTTTAGAGAGGA (sugars kkkdddddddddkeke, PS)”, the target mRNA inhibition worked out at 37%. For the sequence “ACAGTGACTTGCATCC (sugars kkdddddddddkdkdk, PS)”, the target mRNA inhibition was 18%. With ACCGATGCTTCAAGAC (sugars k3 d10 k3, PS), the target mRNA inhibition is 31% and 56%.

ACCGGTAGAGTGAGAT (sugars k3 d10 k3, PS): the target mRNA inhibition was 16% and 2%. For the sequence ACCTACACAGGCTAAT (sugars k3 d10 k3, PS), the target mRNA inhibition was -4%. “ACCTCAGTTTGTGAAG (sugars e1 k2 d9 k2 e2, PS)”: the target mRNA inhibition is 2%.

Still in this data set, the particulars now being: ASO, MM.1R, 4 µM.
With AACCTTAAGCTATTTG (sugars k3 d10 k3, PS), the target mRNA inhibition worked out at 48%.

Staying with this data set, now noted: ASO, SK-MEL-28, 4 µM.
On to AAAAAAGGTGCAAGCC (sugars k3 d10 k3, PS), for which the target mRNA inhibition is 7%. On the same count and under the same terms, next, AAAAACTTGGGTCACT (sugars k3 d10 k3, PS): -19%; AAAAATGTCCCATCCA (sugars k3 d10 k3, PS): 30%. Take AAAACAGTAAGAGGGC (sugars k3 d10 k3, PS): the target mRNA inhibition was determined as 39%.

Take AAAAGAGCCGCCACAT (sugars k3 d10 k3, PS): the target mRNA inhibition was determined as 16%. In the case of AAACACCTCAGCTGAC (sugars k3 d10 k3, PS), the target mRNA inhibition came out at 16%. Still for that read-out and setting: next, AAACAGCCGCCGGCAC (sugars k3 d10 k3, PS): 11%; AAACAGTGCCCAAGCC (sugars k3 d10 k3, PS): 25%; AAAGATGCCAGAGGGC (sugars k3 d10 k3, PS): 23%.

With AAAGCATAGAGTCACC (sugars k3 d10 k3, PS), the target mRNA inhibition was 34%. On to AAAGGAGGTAGTGGCC (sugars k3 d10 k3, PS), for which the target mRNA inhibition is 21%. As for AAAGGCCAAATTGCAA (sugars k3 d10 k3, PS), the target mRNA inhibition was found to be 52%. Regarding AAATAGCATCAGAGCT (sugars k3 d10 k3, PS), the target mRNA inhibition is 13%. AACAGATAGTTAAGTA (sugars k3 d10 k3, PS): the target mRNA inhibition was 19%.

For the sequence AACCAAGAAATGCACC (sugars k3 d10 k3, PS), the target mRNA inhibition came out at 33%. As to AACCACAAGCAGTGAT (sugars k3 d10 k3, PS), the target mRNA inhibition was 17%.

As for AACTTACAGGACTATT (sugars k3 d10 k3, PS), the target mRNA inhibition stood at 13%.

For the sequence AAGATACAAAACGGAC (sugars k3 d10 k3, PS), the target mRNA inhibition was found to be 39%.

Consider AAGATGACTCCATGAG (sugars k3 d10 k3, PS), for which the target mRNA inhibition is 64%. For AAGCAAGAGCTTACTG (sugars k3 d10 k3, PS), the target mRNA inhibition came to 14%. For the sequence AAGCAAGTGGAGGTCT (sugars k3 d10 k3, PS), the target mRNA inhibition is 51%. AAGCACTGGCATTGAG (sugars k3 d10 k3, PS): the target mRNA inhibition stood at 42%.

As for AAGGGTTACGCTTATT (sugars k3 d10 k3, PS), the target mRNA inhibition was 52%. As for AAGGTCTGAGAGCCTT (sugars k3 d10 k3, PS), the target mRNA inhibition turned out to be 17%. AAGGTTCCTGTCACCT (sugars k4 d8 k4, PS): the target mRNA inhibition was determined as 14%. As to AAGTGATAGGTATACT (sugars k3 d10 k3, PS), the target mRNA inhibition worked out at 50%. As to AATAAACACCCCTTCT (sugars k3 d10 k3, PS), the target mRNA inhibition was found to be 21%. AATAAAGACCTTAACC (sugars k3 d10 k3, PS): the target mRNA inhibition worked out at 11%. For AATAAGCAGAAACAGC (sugars k3 d10 k3, PS), the target mRNA inhibition is -1%. Take AATCACTTGTCTTGGG (sugars k3 d10 k3, PS): the target mRNA inhibition is 60%. In the case of AATCAGATGATGTCTA (sugars k4 d8 k4, PS), the target mRNA inhibition was -13%.

For the sequence AATCAGATGTCACTGA (sugars k3 d10 k3, PS), the target mRNA inhibition stood at 3%.

As for AATGAACGGAAGTTTA (sugars k3 d10 k3, PS), the target mRNA inhibition is 33%.

As for AATGTAGGGATACAGC (sugars k3 d10 k3, PS), the target mRNA inhibition stood at 62%. Consider AATGTTCAGCTTTTCC (sugars k3 d10 k3, PS), for which the target mRNA inhibition amounted to 63%.

On to AATTACTGCTTGAGGT (sugars k3 d10 k3, PS), for which the target mRNA inhibition is 58%.

Regarding ACAAGCATAAAAGGTT (sugars k4 d8 k4, PS), the target mRNA inhibition amounted to 40%.

For ACACACCACTATTCGA (sugars k3 d10 k3, PS), the target mRNA inhibition is 35%. Consider ACACGGGAATTTCCAT (sugars k3 d10 k3, PS), for which the target mRNA inhibition is 56%. For ACAGAGGACTTCGGGA (sugars k3 d10 k3, PS), the target mRNA inhibition is -36%. As to ACAGGACCTGGTCCAG (sugars k4 d8 k4, PS), the target mRNA inhibition is 7%.

As for ACAGTGATCATCAATG (sugars k3 d10 k3, PS), the target mRNA inhibition amounted to 56%. The same measure, in the same setting: next, ACATAAAGGACCCCGC (sugars k3 d10 k3, PS): 28%. Turning to ACATACCTACAAGCAG (sugars k3 d10 k3, PS), the target mRNA inhibition amounted to 45%.

ACCAAATTCCCGGAGG (sugars k3 d10 k3, PS): the target mRNA inhibition was found to be 7%.

Turning to ACCAGAATTGCAAGAG (sugars k3 d10 k3, PS), the target mRNA inhibition was determined as 60%.

With ACCCAAGACTCCCAGA (sugars k3 d10 k3, PS), the target mRNA inhibition was 45%. ACCCAGAAGTACGAGC (sugars k3 d10 k3, PS): the target mRNA inhibition amounted to 21%. Turning to ACCCAGCTAATGAGAG (sugars k3 d10 k3, PS), the target mRNA inhibition came out at 35%. For ACCTACTCCATCACTT (sugars k3 d10 k3, PS), the target mRNA inhibition is -3%. Same read-out and setting: next, ACCTCAGTTTGTGAAG (sugars k3 d10 k3, PS): 39%.

For the origin of these results see the OligoGym collection.
